Data: patent publication US9486472B2, “Methods for modulating neuronal responses” (UNIVERSITY OF BRITISH COLUMBIA CANADA, priority 2003, dated 2016)

Key:
[1] = tested on: Akt; assay: Akt phosphorylation at serine 473 (Western blot); format: cell-based, rat
Protocol: Immunoprecipitation and Western blotting were carried out essentially as previously reported.^14 Proteins from cerebral cortex, hippocampal slices, cultured hippocampal neurons or transfected HEK293 cells were solubilized in RIPA buffer containing either 1% SDS (plus 5 min boiling; denaturing conditions) or 1% DOC (non-denaturing conditions). For immunoprecipitation, 500 μg of protein from these tissue lysates was incubated with their respective antibodies in 500 μl of RIPA buffer for 4 h at 4° C. Protein A-sepharose was added to the mixture and incubated for an additional 2 h. The complex was isolated by centrifugation and washed three times. Proteins eluted from the sepharose beads were subjected to SDS-PAGE and immunoblotting using their respective antibodies. For sequential re-probing of the same blots, the membranes were stripped of the initial primary and secondary antibodies and subjected to immunoblotting with another antibody. Blots were developed using enhanced chemiluminescence detection (Amersham). Band intensities were quantified using Scion Image PC software.
The serine/threonine kinase Akt/PKB has been implicated in protecting neurons from apoptotic cell death^17 and inhibition of this kinase activity has been suspected to be involved in NMDA receptor-mediated apoptosis^18. […]

[2] = tested on: hippocampal neurons; assay: NMDA- or STS-induced apoptosis in cultured hippocampal neurons (Cell Death ELISA, 11-dUTP, PI staining); format: cell-based, rat; conditions: 100 μM NMDA + 10 μM glycine 1 h, read at 24 h; APV 50 μM; sucrose 0.4 M; myr-Dyn 100 μM; R2-CT 1 μM with Pep-1
Protocol: (§1) Hippocampi were rapidly removed from embryonic E l 8 Sprague Dawley rats and pooled prior to trituration. Hippocampal cell suspensions were plated onto poly-Dlysine coated culture dishes or glass coverslips and grown in Neurobasal™ media 10 (Invitrogen) for 14 days in vitro (DIV). The media from mature 14 DIV neurons was removed and replaced with 100 μM NMDA plus 10 μM glycine for 1 h at 37° C. prior to restoring neurons to the defined growth media. Twenty four hours after NMDA/glycine application, neurons were processed using cell death assays. NMDA-induced [Ca^2+]i responses were evoked and measured using methods described previously^26.
Apoptosis quantification: NMDA-induced apoptosis was quantified either using a Cell Death Detection Elisa Plus Kit (Roche Applied Sciences), which is based on the in vitro determination of cytoplasmic histone-associated DNA fragments, or using TdT mediated addition of biotinylated 11-dUTP to the free 3′-OH ends of DNA. Absorbance readings for both assays were carried out using a microplate reader.
Propidium Iodide (PI) staining of nuclei: After the induction of apoptosis, cells were fixed with 4% parafonnaldehyde/4% sucrose for 10 min followed by ice cold acetone for 1 min, and then stained with […] PI in Dulbecco's PBS for 30 min. Stained coverslips were mounted onto glass slides and viewed with a Leica fluorescence microscope to identify condensed nuclei. Cells with condensed nuclei were counted as apoptotic and the percentage of apoptotic cells to the total number of cells was calculated to give a semi-quantitative analysis, expressed as percentage of apoptosis.
A short peptide (YKEGYNVYGIE (SEQ ID NO. 2)) corresponding to amino acid residues from 869 to 879 of the C-terminus of GluR2 (R2-CT) was synthesized and incubated with a carrier protein (Pep-1)23 at a ratio of 1:20 in Dulbecco's modified Eagle's medium
(DMEM, Gibco) at 37° C. in a humidified atmosphere containing 5% CO2 for 30 min to allow the formation of R2-CT/Pep-1 complex. Hippocampal neurons (DW 12-14) were then overlaid with the preformed complex to reach a final R2-CT concentration of 1 μM and further incubated for 1 h before experiments commenced. Receptor Trafficking Assays

[3] = biological target: T1, NMDA receptor channel (Rattus norvegicus, UniProt P35439); assay: NMDA-evoked [Ca2+]i responses (Fura-2); format: cell-based; conditions: NMDA 100 μM, 500 ms puffs; sucrose 400 mM in bath
T1 construct: we loaded hippocampal neurons with the intracellular Ca2+ dye, Fura-2; endogenous in cells; host or cells: primary rat hippocampal neurons (E18 Sprague Dawley)
Protocol: as §1

[4] = tested on: transferrin receptor; assay: Transferrin receptor endocytosis assay; format: cell-based, rat; conditions: fluorescently-labeled transferrin 30 min; sucrose 0.4 M; R2-CT+Pep-1 one hour prior to and during
Protocol: Transferrin receptor endocytosis assay: To assess the effect of endocytosis inhibitors on transferrin receptor endocytosis, hippocampal neurons were incubated with […] Alexa-A488 conjugated transferrin (Molecular Probes) for 30 min at 37° C. in the presence or absence of endocytosis inhibitors. Internalized receptors were then viewed with a Leica fluorescence microscope.

[5] = tested on: AMPA receptor (wild type GluR2); assay: Colorimetric cell-ELISA receptor internalization assay, HEK293 cells expressing GluR2; format: cell-based, rat; conditions: insulin 0.5 μM, 10 min; approximately 25% without insulin
Text: Rat HA-tagged GluR1 and GluR2 receptor subunit cDNAs have been described previously^14. Constructs of HA-GluR2 carboxyl internal deletion or truncation mutants were made by standard PCR methods. The HA-GluR23Y-3A mutant was made using a Quick-Change Site Directed Mutagenesis Kit (Stratagene). HEK293 cells (ATCC) were transfected using the calcium phosphate precipitation method. Thirty six to forty eight hours after transfection, cells were washed with extracellular recording solution (ECS in mM: 140 NaCl, 33 glucose, 25 HEPES, 5.4 KCl, 1.3 CaCl2; pH 7.4, 320 mOsm) and incubated in ECS for at least one hour (serum starvation). […]
The ability of these mutants to undergo both constitutive and regulated endocytosis was assayed as described previously.^14 Surface receptors in live cells were pre-labelled with an anti-HA antibody (or an antibody against the extracellular N-terminal domain of GluR2 in the case of GluR2Δ854) at 4° C. […] Internalised receptors were then visualised by confocal microscopy and quantitated by colorimetric cell-ELISA-based receptor internalization assays (FIG. 6A). […] Transfected cells were pre-labeled with anti-HA antibody and then receptor endocytosis was evaluated under basal conditions (constitutive endocytosis) or following insulin stimulation (0.5 μM, 10 min; regulated endocytosis). […]

Compound	NMDA-induced reduction in S473 phosphorylated Akt ([1]; hypertonic sucrose)	STS-induced reduction of Akt phosphorylation ([1]; sucrose treatment)	NMDA-induced apoptosis [2]	NMDA-evoked [Ca2+]i responses [3]	transferrin receptor endocytosis [4]	cell-surface receptors endocytosed within 30 min [5]
OC[C@H]1O[C@@](CO)(O[C@H]2O[C@H](CO)[C@@H](O)[C@H](O)[C@H]2O)[C@@H](O)[C@@H]1O [sucrose]	largely prevented	had no effect on the reduction of Akt phosphorylation following STS treatment	dramatically reduced	did not significantly alter NMDA-evoked [Ca^2+]i responses	eliminated	–
insulin: human recombinant insulin (Sigma)	–	–	–	–	–	48%
